{"source": "patent US20080064675A1", "about": "“Use of Aromatic flavoring agents with high melting point as solubilizing agents” (priority 2005, published 2008)", "test": "trans-anethole and vanillin in compositions of modafinil (Example 3)", "type": "physicochemical", "description": "200 mg of modafinil were weighted in two test tubes (A and B). 2 mL of benzyl alcohol were added to test tube A and 200 mg of vanillin, 2 mL of anethole and 2 mL of benzyl alcohol were added to test tube B. The test tubes were stirred and heated to 60° C. Further, the tubes were cooled at room temperature."}
{"smiles": "NC(=O)C[S+]([O-])C(c1ccccc1)c1ccccc1", "note": "(centres unmarked) [modafinil]", "values": [{"measurement": "crystallization on cooling at room temperature", "setting": "tube A: 200 mg in 2 mL benzyl alcohol", "value": "promptly crystallized"}, {"measurement": "crystallization after cooling at room temperature", "setting": "tube B: 200 mg vanillin, 2 mL anethole and 2 mL benzyl alcohol, 12 hours after cooling", "value": "no crystals were noted"}]}
